Data as given in patent US7563886B2, “Nucleoside releasing functional unit through oxidation and process for producing oligonucleotide containing thereof” (Japan Science and Technology Agency, priority 2003, dated 2009).

Assays:
[1] = Photooxidation of single-stranded oligonucleotide, irradiation at 366 nm in the presence of riboflavin; type: physicochemical; settings: single-stranded ODN, irradiated at 366 nm in the presence of riboflavin
Text: The inventors conducted photooxidization of the oligonucleotide (7) containing benzoyl-^edaG (^Bz-edaG), for example, 5′-d(TATAAT^Bz-edaGTAATAT)-3′.
The single-stranded oligonucleotide (ODN) 5′-d(TATAAT^edaGTAATAT)-3′ was irradiated at 366 nm in the presence of riboflavin.

[2] = Oxidation with sodium hexachloroiridate(IV); settings: in 15 minutes
[3] = Measurement of oxidation potential (E1/2); type: physicochemical; settings: vs. NHE; 100 mM LiClO4 solution, room temperature
Protocol: The oxidation potential (E1/2) of benzoyl-^edaG was measured in 100 mM LiClO4 solution at room temperature by ALS electrochemical analyzer model 660-A. The scanning speed was 100 mV/sec. A glass carbon electrode was used as a sample electrode; a platinum wire as a counter electrode; and SCE as a reference electrode.

Row | Substance | t1/2 of decomposition [1] | decomposed at the site of the modified edaG [2] | oxidation potential (E1/2) [3]
1 | 5′-d(TATAAT^edaGTAATAT)-3′ | 6.2 min |  | 
2 | 5′-d(TATAAT^Bz-edaGTAATAT)-3′ | 6.2 min | 57% | 
3 | benzoyl-^edaG [^Bz-edaG] |  |  | 0.59 V
